Data reported in article PMC8893300, “A Dynamic Mass Redistribution Assay for the Human Sweet Taste Receptor Uncovers G-Protein Dependent Biased Ligands” (Frontiers in Pharmacology, 2022).
Read-outs that look alike come from different tables or passages of the source.

How the values were obtained:
Assay type in all cases: cell-based
[1] = target: T1, human sweet taste receptor (hT1R2/hT1R3) coupled to Gα15 (Homo sapiens, UniProt Q7RTX0+Q8TE23); assay: FLIPR calcium mobilization assay, R2/R3 U2OS cells transduced with Gα15 baculovirus; details: for EC50: R2/R3 U2OS cells expressing Gα15
T1 construct: expressed in transfected cells
T1 sequence (Q8TE23 20-839): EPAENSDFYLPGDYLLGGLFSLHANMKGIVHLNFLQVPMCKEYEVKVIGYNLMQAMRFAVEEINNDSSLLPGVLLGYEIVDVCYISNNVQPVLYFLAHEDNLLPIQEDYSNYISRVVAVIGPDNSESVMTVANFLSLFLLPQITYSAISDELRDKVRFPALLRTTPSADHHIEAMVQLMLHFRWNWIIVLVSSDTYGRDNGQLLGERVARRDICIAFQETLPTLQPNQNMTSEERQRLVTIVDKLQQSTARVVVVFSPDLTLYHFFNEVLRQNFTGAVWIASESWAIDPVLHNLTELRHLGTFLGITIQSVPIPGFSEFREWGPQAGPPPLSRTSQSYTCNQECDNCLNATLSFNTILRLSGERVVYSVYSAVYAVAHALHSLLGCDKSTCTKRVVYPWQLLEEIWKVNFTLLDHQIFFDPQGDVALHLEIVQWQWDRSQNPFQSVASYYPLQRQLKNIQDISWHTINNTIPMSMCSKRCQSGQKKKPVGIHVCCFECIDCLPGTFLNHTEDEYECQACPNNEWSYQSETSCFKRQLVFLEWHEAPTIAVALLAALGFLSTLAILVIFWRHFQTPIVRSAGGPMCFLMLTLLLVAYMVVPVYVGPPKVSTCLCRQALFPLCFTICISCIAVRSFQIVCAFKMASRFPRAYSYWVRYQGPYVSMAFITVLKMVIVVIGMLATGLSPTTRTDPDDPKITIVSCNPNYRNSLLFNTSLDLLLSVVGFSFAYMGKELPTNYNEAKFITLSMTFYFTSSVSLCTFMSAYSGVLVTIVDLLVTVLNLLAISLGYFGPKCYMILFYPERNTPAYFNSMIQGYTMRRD
T1 sequence (Q7RTX0 21-852): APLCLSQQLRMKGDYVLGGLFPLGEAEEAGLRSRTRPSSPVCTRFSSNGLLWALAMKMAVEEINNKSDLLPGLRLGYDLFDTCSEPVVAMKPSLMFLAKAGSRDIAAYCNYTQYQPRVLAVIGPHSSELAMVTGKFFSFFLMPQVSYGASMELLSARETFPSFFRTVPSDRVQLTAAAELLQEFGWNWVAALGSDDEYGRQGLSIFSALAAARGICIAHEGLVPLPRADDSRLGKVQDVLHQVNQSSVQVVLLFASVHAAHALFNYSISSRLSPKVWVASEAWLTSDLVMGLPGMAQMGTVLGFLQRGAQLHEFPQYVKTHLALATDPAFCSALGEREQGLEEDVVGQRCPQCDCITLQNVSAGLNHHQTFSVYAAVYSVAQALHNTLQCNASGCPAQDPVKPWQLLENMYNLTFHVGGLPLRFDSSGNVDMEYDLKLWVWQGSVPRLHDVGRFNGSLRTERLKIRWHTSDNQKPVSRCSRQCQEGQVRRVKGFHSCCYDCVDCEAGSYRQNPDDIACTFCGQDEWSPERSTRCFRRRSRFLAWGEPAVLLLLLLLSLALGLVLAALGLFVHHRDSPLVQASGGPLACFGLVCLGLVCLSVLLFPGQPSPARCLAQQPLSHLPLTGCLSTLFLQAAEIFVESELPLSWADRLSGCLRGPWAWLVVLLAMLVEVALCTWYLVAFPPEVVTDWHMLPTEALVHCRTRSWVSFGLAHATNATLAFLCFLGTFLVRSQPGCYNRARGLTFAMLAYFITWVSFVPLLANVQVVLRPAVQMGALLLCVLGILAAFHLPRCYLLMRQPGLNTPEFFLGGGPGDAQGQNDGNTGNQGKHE
Description: The Gα15 coding sequence was inserted in the HindIII-NotI sites and recombinant virus was generated using the Bac-to-Bac system (Life Technologies). Virus was further amplified by propagation in Sf9 cells grown in suspension using Sf900-II media. Virus titers were determined by plaque assay on Sf9 cells.
Cells were gently mixed with the virus at a multiplicity of infection (MOI) of 5. Using a multidrop, 70 μl per well of the cell and virus mixture was dispensed in a 384-well clear bottom plate (Fisher). After 24 h of incubation in a humidified 37°C tissue culture incubator, trichostatin A was added to a final concentration of 0.3 μM and the cells were incubated for another 18–24 h at 34°C. On the day of the experiment, cells were loaded with 4 μM of the calcium indicator Fluo-4 AM (Invitrogen) in D-PBS for 1 h at room temperature. After washing the cells with D-PBS using a cell washer (BioTek) and a 30-minute rest time, the cell plate and the compound plate were transferred into the FLIPR-Tetra (Molecular Devices). […] Loading and the FLIPR assay were run as described above. When indicated, data for agonist dose-responses were normalized to data obtained with a maximum concentration of sucralose (1 mM) and then fitted and plotted using GraphPad Prism (San Diego, CA) and non-linear regression analysis.
(§1) This value, that we termed pEC50Ratio (sucralose) or pEC50R (sucralose), was calculated with EC50 values obtained in the two assay systems. This transformation also allowed determination of an average and a standard error for the pEC50R (sucralose). The two sets of data (DMR and FLIPR data) were then analyzed with an un-paired t-test (α = 0.05). To calculate relative efficacy bias between the two assays, we captured the top asymptote value from each activity-normalized dose-response curve, as provided by the curve fit, calculated an average and a standard deviation (sd) for each agonist and then analyzed the data pairs with an un-paired t-test (α = 0.05). […] The following steps were followed: 1) Using the PRISM software, we re-analyzed each ligand’s dose-response data obtained in each assay with non-linear regression and the users-defined equation “New Operational Model with TauKa ratios” and retrieved logR values from the fits. 2) Subtracted each ligand’s logR value with that of our standard, the sucralose logR value, obtained from the same data set (each ligand dose-response assay data used in this analysis was accompanied with a sucralose dose-response ran on the same day), producing the ΔlogR value for leach ligand in each assay. 3) Calculated the mean and SEM from ΔlogR replicates (from three to nine independent dose-response analysis, in the two different assays). 4) Calculated ΔΔlogR values by subtracting the averaged ligands’ ΔlogR FLIPR values with the averaged ligands’ ΔlogR DMR values.

[2] = target: T2, human sweet taste receptor (hT1R2/hT1R3) (Homo sapiens, UniProt Q7RTX0+Q8TE23); assay: DMR assay (Epic reader) on R2/R3 U2OS cells, endogenous G proteins; details: for EC50: peak DMR response
T2 construct: expressed in transfected cells
T2 sequence (Q8TE23 20-839): T1 sequence (Q8TE23 20-839)
T2 sequence (Q7RTX0 21-852): T1 sequence (Q7RTX0 21-852)
Description: (§2) The plates were incubated in the tissue culture hood for 20 min to allow cells to settle evenly at the bottom of the microplate and further cultured at 37°C in an atmosphere of 5% CO2 for 18–24 h. The next day, the cells were subjected to functional analysis using DMR. […] When indicated, data for agonist dose-responses were normalized to data obtained with a maximum concentration of sucralose (1 mM) and then fitted and plotted using GraphPad Prism (San Diego, CA) and non-linear regression analysis.
as §1

parental U2OS cells = assay: DMR assay on parental U2OS cells (receptor-independent responses); details: highest concentration of sucralose (≥2 mM)
Description: as §2, with “DMR. The lidded Epic® 384 microplate and polypropylene compound plate (Corning) were loaded into the carousel of the Epic® reader, the target plate was washed with DMSO matched D-PBS using the Corning Epic® Liquid Handling Accessory (LHA) and equilibrated in 25 μl of DMSO matched D-PBS for 90 min.” for “DMR.”

SMILES: OC[C@H]1O[C@H](O[C@]2(CCl)O[C@H](CCl)[C@@H](O)[C@@H]2O)[C@H](O)[C@@H](O)[C@H]1Cl [Sucralose]
- dose-response curve's top asymptote in the FLIPR assay ([1]; Gα15, relative to response at 1 mM sucralose): 104%
- Activity in FLIPR assay Emax ([1]; Gα15, top asymptote of dose-response normalized to 1 mM sucralose): 104
- EC50 ([1]; read-out: Activity in FLIPR assay EC50): 72 µM
- EC50 ([1]; read-out: Activity in FLIPR assay pEC50 (converted)): 69.3 µM
- time of peak DMR response post-stimulation ([2]; R2/R3 U2OS cells): ~4 min
- EC50 ([2]; R2/R3 U2OS cells, read-out: Activity in DMR assay EC50): 163 µM
- EC50 ([2]; R2/R3 U2OS cells, read-out: Activity in DMR assay pEC50 (converted)): 150 µM
- dose-response curve's top asymptote in the DMR assay ([2]; relative to response at 1 mM sucralose): around 122%
- Activity in DMR assay Emax ([2]; top asymptote of dose-response normalized to 1 mM sucralose): 122
- non-specific DMR effect on parental U2OS cells (parental U2OS cells): 20–40 pm
